Key:
Type in all cases: cell-based
[1] = target: T1, HER2 InsYVMA (A775_G776insYVMA) transformed Ba/F3 cells (Homo sapiens, UniProt P04626, INS775YVMA); assay: Proliferation inhibition assay, HER2 InsYVMA transformed Ba/F3 cells; details: MTS assay, 72 hours, Table 9 key
T1 construct: expressed in transfected cells; host or cells: Ba/F3
Experimental: (§1) Cell growth inhibition can be assessed by MTS assay or by Cell Titer Glo Luminescent Cell viability assay (Promega®). Cells are seeded and grow in culture plates before they are exposed to representative compounds of the application for various duration. The viability of the cells are then assessed. […] The growth curves can be fitted using a nonlinear regression model with sigmoidal dose response.
(§2) Cell growth inhibition was assessed by MTS assay for Ba/F3, DFCI58-229, and DFCI127c cells, or by Cell Titer Glo Luminescent Cell viability assay (Promega®) for DFC1362JC cells, 3000 Ba/F3 cells were seeded for per well in 96-well plates, and were exposed to representative compounds of the application (3.3 nM to 10 μM) for 72 hours. For DFCI58-229, DFCI127c, and DFC1362JC cells, 5000 cells were seeded per well. All experimental points included 6 to 12 wells. […] The growth curves were fitted using a nonlinear regression model with sigmoidal dose response.
(§3) Activities of representative compounds of the present application in inhibiting EGFR and HER2 were tested by MTS assay (for Ba/F3 cell, DFCI58-229 cell, and DFCI127c cells) or by CellTiter-Glot luminescent cell viability assay (for DFCI362JC cells). For assays with Ba/F3 cells, 3000 cells were seeded for per well in 96-well plates and were exposed to indicated compounds with a concentration of 3.3 to 10 μM for 72 hours. For assays with DFCI58-229 cell, DFCI127c cell, or DFCI362JC cell, 5000 cells were seeded per well in 96-well plates and were exposed to indicated compounds with a concentration of 3.3 to 10 μM for 72 hours.

[2] = target: T2, EGFR InsNPG (D770_N771insNPG) transformed Ba/F3 cells (Homo sapiens, UniProt P00533, INS770NPG); assay: Proliferation inhibition assay, EGFR InsNPG transformed Ba/F3 cells; details: MTS assay, 72 hours
T2 construct: expressed in transfected cells; host or cells: Ba/F3
Experimental: as §1, §2, §3

[3] = target: T3, wild-type EGFR transformed Ba/F3 cells (Homo sapiens, UniProt P00533); assay: Proliferation inhibition assay, wild-type EGFR transformed Ba/F3 cells; details: MTS assay, 72 hours
T3 construct: expressed in transfected cells; host or cells: Ba/F3
Experimental: as §1, §2, §3

[4] = target: T4, HER2 InsGSP (P780_Y781insGSP) transformed Ba/F3 cells (Homo sapiens, UniProt P04626, INS780GSP); assay: Proliferation inhibition assay, HER2 InsGSP transformed Ba/F3 cells; details: MTS assay, 72 hours, Table 9 key
T4 construct: expressed in transfected cells; host or cells: Ba/F3
Experimental: as §1, §2, §3

[5] = target: T5, EGFR InsASV (V769_D770insASV) transformed Ba/F3 cells (Homo sapiens, UniProt P00533, INS769ASV); assay: Proliferation inhibition assay, EGFR InsASV transformed Ba/F3 cells; details: MTS assay, 72 hours
T5 construct: expressed in transfected cells; host or cells: Ba/F3
Experimental: as §1, §2, §3

[6] = target: T6, HER2 InsVC (G776delinsVC) transformed Ba/F3 cells (Homo sapiens, UniProt P04626, G776C/INS775V); assay: Proliferation inhibition assay, HER2 InsVC transformed Ba/F3 cells; details: MTS assay, 72 hours, Table 9 key
T6 construct: expressed in transfected cells; host or cells: Ba/F3
Experimental: as §1, §2, §3

[7] = target: T7, EGFR InsH transformed Ba/F3 cells (Homo sapiens, UniProt P00533, DUP773-773); assay: Proliferation inhibition assay, EGFR InsH transformed Ba/F3 cells; details: MTS assay, 72 hours
T7 construct: expressed in transfected cells; host or cells: Ba/F3
Experimental: as §1, §2, §3

[8] = target: T8, wild-type HER2 transformed Ba/F3 cells (Homo sapiens, UniProt P04626); assay: Proliferation inhibition assay, wild-type HER2 transformed Ba/F3 cells; details: MTS assay, 72 hours, Table 9 key
T8 construct: expressed in transfected cells; host or cells: Ba/F3
Experimental: as §1, §2, §3

[9] = target: T9, HER2 InsWLV transformed Ba/F3 cells (Homo sapiens, UniProt P04626, INS773WL/M774V); assay: Proliferation inhibition assay, HER2 InsWLV transformed Ba/F3 cells; details: MTS assay, 72 hours, Table 9 key
T9 construct: expressed in transfected cells; host or cells: Ba/F3
Experimental: as §1, §2, §3

[10] = target: T10, EGFR InsHH (Y764_V765insHH) transformed Ba/F3 cells (Homo sapiens, UniProt P00533, INS764HH); assay: Proliferation inhibition assay, EGFR InsHH transformed Ba/F3 cells; details: MTS assay, 72 hours
T10 construct: expressed in transfected cells; host or cells: Ba/F3
Experimental: as §1, §2, §3

[11] = target: T11, EGFR InsGY (D770delinsGY) transformed Ba/F3 cells (Homo sapiens, UniProt P00533, D770Y/INS769G); assay: Proliferation inhibition assay, EGFR InsGY transformed Ba/F3 cells; details: MTS assay, 72 hours
T11 construct: expressed in transfected cells; host or cells: Ba/F3
Experimental: as §1, §2, §3

[12] = target: T12, EGFR InsSVD (D770_N771insSVD) transformed Ba/F3 cells (Homo sapiens, UniProt P00533, INS770SVD); assay: Proliferation inhibition assay, EGFR InsSVD transformed Ba/F3 cells; details: MTS assay, 72 hours
T12 construct: expressed in transfected cells; host or cells: Ba/F3
Experimental: as §1, §2, §3

T4 sequence (P04626 with tags, fused parts or gaps INS780GSP): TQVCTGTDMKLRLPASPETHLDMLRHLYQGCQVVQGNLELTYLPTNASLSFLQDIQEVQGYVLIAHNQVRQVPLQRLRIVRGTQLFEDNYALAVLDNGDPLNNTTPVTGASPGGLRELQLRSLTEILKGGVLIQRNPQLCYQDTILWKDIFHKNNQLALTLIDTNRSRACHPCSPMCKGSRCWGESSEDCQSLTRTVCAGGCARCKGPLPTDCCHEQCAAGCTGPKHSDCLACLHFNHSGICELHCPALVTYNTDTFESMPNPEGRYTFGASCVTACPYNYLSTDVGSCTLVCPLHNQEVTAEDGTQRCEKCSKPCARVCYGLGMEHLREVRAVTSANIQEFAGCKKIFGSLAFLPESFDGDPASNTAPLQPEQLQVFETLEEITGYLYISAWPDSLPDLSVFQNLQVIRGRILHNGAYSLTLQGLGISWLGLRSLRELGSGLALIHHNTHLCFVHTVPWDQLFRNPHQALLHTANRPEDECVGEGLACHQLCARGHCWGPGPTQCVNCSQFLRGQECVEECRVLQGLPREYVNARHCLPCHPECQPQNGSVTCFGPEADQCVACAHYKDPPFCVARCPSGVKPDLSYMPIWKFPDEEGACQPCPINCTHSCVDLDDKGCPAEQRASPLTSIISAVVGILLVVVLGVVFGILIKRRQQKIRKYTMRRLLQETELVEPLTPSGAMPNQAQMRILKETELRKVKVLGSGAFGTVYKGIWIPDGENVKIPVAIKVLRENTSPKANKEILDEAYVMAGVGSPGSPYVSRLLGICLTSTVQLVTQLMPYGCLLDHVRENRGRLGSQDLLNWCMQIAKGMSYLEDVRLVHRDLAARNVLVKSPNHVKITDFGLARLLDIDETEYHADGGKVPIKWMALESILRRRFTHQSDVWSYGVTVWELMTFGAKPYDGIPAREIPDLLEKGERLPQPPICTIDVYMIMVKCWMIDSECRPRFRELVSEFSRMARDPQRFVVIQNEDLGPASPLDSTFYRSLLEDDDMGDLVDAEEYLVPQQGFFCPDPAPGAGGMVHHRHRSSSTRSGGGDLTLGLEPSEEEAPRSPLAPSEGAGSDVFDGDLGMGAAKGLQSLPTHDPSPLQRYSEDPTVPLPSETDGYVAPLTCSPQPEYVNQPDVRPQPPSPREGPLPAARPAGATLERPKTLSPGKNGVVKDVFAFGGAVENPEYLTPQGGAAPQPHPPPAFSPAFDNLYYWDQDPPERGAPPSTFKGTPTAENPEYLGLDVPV
T8 sequence (P04626 23-1255): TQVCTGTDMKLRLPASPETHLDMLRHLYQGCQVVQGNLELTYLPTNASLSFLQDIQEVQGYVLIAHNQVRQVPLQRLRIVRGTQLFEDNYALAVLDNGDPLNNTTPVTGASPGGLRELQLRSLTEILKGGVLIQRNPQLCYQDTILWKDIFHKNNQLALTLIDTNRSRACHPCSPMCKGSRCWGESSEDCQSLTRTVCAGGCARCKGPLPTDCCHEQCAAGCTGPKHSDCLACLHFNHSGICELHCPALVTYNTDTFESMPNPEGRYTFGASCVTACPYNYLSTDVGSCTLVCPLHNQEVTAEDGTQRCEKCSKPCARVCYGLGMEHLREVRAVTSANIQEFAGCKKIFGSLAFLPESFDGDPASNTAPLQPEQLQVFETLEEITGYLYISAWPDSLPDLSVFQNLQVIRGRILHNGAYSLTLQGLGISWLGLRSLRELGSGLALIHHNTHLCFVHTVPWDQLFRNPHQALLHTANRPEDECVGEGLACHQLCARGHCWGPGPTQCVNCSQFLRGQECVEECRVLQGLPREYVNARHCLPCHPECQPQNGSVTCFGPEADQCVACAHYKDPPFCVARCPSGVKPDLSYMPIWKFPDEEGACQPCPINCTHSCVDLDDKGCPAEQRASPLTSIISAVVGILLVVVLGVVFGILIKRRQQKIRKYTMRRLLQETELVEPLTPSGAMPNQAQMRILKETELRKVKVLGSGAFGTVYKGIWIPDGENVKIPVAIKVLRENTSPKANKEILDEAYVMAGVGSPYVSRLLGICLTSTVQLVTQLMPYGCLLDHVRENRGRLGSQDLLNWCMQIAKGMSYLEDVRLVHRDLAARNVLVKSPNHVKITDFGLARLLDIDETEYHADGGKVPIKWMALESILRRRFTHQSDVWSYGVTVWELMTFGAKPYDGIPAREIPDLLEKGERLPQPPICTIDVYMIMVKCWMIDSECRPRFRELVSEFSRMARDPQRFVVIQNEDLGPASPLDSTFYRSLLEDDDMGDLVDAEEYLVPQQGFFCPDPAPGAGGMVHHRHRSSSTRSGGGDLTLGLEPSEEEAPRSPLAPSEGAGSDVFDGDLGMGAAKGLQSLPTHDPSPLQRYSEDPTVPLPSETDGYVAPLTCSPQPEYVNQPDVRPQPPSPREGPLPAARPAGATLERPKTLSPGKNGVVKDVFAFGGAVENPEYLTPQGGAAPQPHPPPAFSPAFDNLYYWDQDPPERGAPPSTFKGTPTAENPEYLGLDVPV
T7 sequence (P00533 with tags, fused parts or gaps DUP773-773): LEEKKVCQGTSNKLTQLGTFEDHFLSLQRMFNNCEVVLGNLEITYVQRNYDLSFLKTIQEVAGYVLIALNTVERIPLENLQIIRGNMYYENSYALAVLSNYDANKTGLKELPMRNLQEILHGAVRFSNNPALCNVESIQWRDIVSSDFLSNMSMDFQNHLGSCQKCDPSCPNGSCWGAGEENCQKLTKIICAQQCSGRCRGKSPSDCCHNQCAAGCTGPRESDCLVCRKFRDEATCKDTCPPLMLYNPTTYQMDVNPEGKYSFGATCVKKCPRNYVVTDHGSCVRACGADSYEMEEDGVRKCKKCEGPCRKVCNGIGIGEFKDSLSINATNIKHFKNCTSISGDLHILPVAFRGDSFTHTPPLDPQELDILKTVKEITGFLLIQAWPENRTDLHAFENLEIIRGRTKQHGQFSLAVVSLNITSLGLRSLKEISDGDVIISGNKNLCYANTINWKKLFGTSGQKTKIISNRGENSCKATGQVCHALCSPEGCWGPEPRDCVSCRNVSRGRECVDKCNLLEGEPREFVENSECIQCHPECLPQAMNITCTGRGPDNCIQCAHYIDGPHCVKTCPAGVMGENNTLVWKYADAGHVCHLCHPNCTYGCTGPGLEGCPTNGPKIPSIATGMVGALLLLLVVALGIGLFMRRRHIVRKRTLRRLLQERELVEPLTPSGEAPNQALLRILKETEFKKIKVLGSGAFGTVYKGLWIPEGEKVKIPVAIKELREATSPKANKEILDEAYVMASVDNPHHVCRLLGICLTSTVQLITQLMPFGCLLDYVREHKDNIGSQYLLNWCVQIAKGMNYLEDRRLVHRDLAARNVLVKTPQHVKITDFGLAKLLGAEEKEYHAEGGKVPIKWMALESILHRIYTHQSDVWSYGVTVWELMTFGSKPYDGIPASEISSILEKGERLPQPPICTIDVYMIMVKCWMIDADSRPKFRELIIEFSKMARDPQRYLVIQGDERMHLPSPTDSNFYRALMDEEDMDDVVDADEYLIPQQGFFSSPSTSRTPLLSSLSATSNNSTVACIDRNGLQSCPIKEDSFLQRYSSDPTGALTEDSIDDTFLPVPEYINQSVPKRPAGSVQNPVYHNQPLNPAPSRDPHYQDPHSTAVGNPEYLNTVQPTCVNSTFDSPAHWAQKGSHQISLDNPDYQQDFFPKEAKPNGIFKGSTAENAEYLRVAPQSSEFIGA
T10 sequence (P00533 with tags, fused parts or gaps INS764HH): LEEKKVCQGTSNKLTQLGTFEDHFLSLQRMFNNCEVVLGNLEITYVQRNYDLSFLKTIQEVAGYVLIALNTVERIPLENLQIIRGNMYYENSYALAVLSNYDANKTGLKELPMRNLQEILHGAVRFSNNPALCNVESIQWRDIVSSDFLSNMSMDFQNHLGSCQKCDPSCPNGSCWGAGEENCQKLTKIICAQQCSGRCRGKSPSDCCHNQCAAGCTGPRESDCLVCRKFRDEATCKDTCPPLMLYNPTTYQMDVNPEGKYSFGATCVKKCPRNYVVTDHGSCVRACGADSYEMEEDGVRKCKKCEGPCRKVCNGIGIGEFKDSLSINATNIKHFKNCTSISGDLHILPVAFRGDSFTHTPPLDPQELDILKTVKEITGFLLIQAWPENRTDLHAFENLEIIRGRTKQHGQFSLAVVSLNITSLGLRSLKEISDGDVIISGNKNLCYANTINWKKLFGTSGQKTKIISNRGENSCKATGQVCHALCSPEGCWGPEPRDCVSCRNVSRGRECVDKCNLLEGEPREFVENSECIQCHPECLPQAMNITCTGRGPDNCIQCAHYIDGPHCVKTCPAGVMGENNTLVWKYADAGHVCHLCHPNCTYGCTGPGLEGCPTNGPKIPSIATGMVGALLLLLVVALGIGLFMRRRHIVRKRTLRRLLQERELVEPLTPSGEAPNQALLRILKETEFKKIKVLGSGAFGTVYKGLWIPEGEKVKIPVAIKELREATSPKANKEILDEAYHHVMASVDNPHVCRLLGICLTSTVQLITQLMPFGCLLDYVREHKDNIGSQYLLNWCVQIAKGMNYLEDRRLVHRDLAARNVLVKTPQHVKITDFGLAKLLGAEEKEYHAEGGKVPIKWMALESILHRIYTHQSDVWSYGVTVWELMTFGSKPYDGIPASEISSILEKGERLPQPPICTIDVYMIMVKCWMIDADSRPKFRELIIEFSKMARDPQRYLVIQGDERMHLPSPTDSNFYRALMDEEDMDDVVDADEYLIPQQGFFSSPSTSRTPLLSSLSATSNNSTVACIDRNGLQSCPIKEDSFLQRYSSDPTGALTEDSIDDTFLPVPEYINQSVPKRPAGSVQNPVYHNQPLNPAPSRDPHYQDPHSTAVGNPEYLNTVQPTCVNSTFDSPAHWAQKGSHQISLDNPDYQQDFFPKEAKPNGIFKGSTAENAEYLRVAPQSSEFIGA

SMILES	EC50 [1] [µM]	EC50 [2] [µM]	EC50 [3] [µM]	EC50 [4] [µM]	EC50 [5] [µM]	EC50 [6] [µM]	EC50 [7] [µM]	EC50 [8] [µM]	EC50 [9] [µM]	EC50 [10] [µM]	EC50 [11] [µM]	EC50 [12] [µM]
C=CC(=O)Nc1cccc(-n2c(=O)c(Oc3ccc(F)cc3F)cc3cnc(Nc4ccc(N5CCC(N6CCN(C)CC6)CC5)cc4)nc32)c1 [Compound 7]	< 0.1	< 0.2	< 0.2	< 0.1	< 0.2	0.1 to 0.25	0.2 to 0.6	< 0.1	0.1 to 0.25	< 0.2	< 0.2	< 0.2
C=CC(=O)Nc1cccc(-n2c(=O)c(Oc3ccc(F)cc3F)cc3cnc(Nc4cn(C)nc4OCC)nc32)c1 [Compound 8]	< 0.1	< 0.2	< 0.2	< 0.1	< 0.2	< 0.1	< 0.2	< 0.1	< 0.1	< 0.2	< 0.2	< 0.2
CN(C)C/C=C/C(=O)Nc1cccc(-n2c(=O)c(Oc3ccc(F)cc3F)cc3cnc(Nc4cnn(C)c4)nc32)c1 [Compound 10]	< 0.1	< 0.2	0.2 to 0.6	< 0.1	< 0.2	0.25 to 0.5	0.6 to 1	< 0.1	0.25 to 0.5	0.2 to 0.6	0.2 to 0.6	0.2 to 0.6
C=CC(=O)N1CCC[C@@H](n2c(=O)c(Oc3ccc(F)cc3F)cc3cnc(Nc4cnn(C)c4)nc32)C1 [Compound 15, (R)-8-(1-acryloylpiperidin-3-yl)-6-(2,4-difluorophenoxy)-2-((1-methyl-1H-pyrazol-4-yl)amino)pyrido[2,3-d]pyrimidin-7(8H)-one]	< 0.1	< 0.2	< 0.2	< 0.1	< 0.2	< 0.1	> 1	< 0.1	0.1 to 0.25	0.2 to 0.6	< 0.2	< 0.2
C=CC(=O)N1CCC[C@@H](n2c(=O)c(Oc3ccc(F)cc3F)cc3cnc(Nc4cnn(C5CCN(C)CC5)c4)nc32)C1 [Compound 17]	< 0.1	< 0.2	< 0.2	< 0.1	< 0.2	< 0.1	0.6 to 1	< 0.1	0.25 to 0.5	0.2 to 0.6	< 0.2	< 0.2
C=CC(=O)NC1CCCC(n2c(=O)c(Oc3ccc(F)cc3F)cc3cnc(Nc4cnn(C)c4)nc32)C1 (stereo not shown) [Compound 23]	< 0.1	< 0.2	< 0.2	< 0.1	< 0.2	< 0.1	0.2 to 0.6	< 0.1	0.1 to 0.25	< 0.2	< 0.2	< 0.2
C=CC(=O)N1CCCC(n2c(=O)c(Oc3ccc(F)cc3F)cc3cnc(Nc4cnn(C)c4)nc32)CC1 (stereo not shown) [Compound 24]	< 0.1	< 0.2	< 0.2	< 0.1	< 0.2	< 0.1	0.2 to 0.6	< 0.1	0.1 to 0.25	0.2 to 0.6	< 0.2	< 0.2
C=CC(=O)N1CCC(Cn2c(=O)c(Oc3ccc(F)cc3F)cc3cnc(Nc4cnn(C)c4)nc32)C1 (stereo not shown) [Compound 26]	> 0.5	< 0.2	< 0.2	< 0.1	< 0.2	0.25 to 0.5	> 1	< 0.1	0.1 to 0.25	0.6 to 1	< 0.2	< 0.2
C=CC(=O)Nc1cc(Nc2ncc3cc(Oc4ccc(F)cc4F)c(=O)n(C)c3n2)c(OC)cc1N(C)CCN(C)C [Compound 29, N-(5-((6-(2,4-difluorophenoxy)-8-methyl-7-oxo-7,8-dihydropyrido[2,3-d]pyrimidin-2-yl)amino)-2-((2-(dimethylamino)ethyl)(methyl)amino)-4-methoxyphenyl)acrylamide]	< 0.1	< 0.2	< 0.2	< 0.1	< 0.2	< 0.1	< 0.2	< 0.1	< 0.1	< 0.2	< 0.2	< 0.2
C=CC(=O)Nc1cc(Nc2ncc3cc(Nc4ccc(F)cc4F)c(=O)n(C)c3n2)c(OC)cc1OCCN(C)C [Compound 142]	< 0.1		< 0.2				0.6 to 1	< 0.1	0.1 to 0.25		< 0.2	< 0.2

Further lines, results first:

EC50 [1] [µM]	EC50 [2] [µM]	EC50 [3] [µM]	EC50 [4] [µM]	EC50 [5] [µM]	EC50 [6] [µM]	EC50 [7] [µM]	EC50 [8] [µM]	EC50 [9] [µM]	EC50 [10] [µM]	EC50 [11] [µM]	EC50 [12] [µM]	SMILES
< 0.1	< 0.2	< 0.2	< 0.1	< 0.2	< 0.1	< 0.2	< 0.1	0.1 to 0.25	< 0.2	< 0.2	< 0.2	C=CC(=O)Nc1cccc(-n2c(=O)c(Oc3ccc(F)cc3)cc3cnc(Nc4cnn(C)c4)nc32)c1 [Compound 1, N-(3-(6-(4-fluorophenoxy)-2-((1-methyl-1H-pyrazol-4-yl)amino)-7-oxopyrido[2,3-d]pyrimidin-8(7H)-yl)phenyl)acrylamide]
< 0.1	< 0.2	< 0.2	< 0.1	< 0.2	0.1 to 0.25	0.2 to 0.6	< 0.1	0.1 to 0.25	0.2 to 0.6	< 0.2	< 0.2	C=CC(=O)Nc1cccc(-n2c(=O)c(Oc3ccc(F)cc3F)cc3cnc(Nc4cnn(C5CCN(C)CC5)c4)nc32)c1 [Compound 3]
< 0.1	< 0.2	< 0.2	< 0.1	< 0.2	< 0.1	< 0.2	< 0.1	< 0.1	< 0.2	< 0.2	< 0.2	C=CC(=O)Nc1cccc(-n2c(=O)c(Oc3ccc(F)cc3F)cc3cnc(Nc4cn(C)nc4OC)nc32)c1 [Compound 4]
< 0.1	< 0.2	< 0.2	< 0.1	< 0.2	0.1 to 0.25	< 0.2	< 0.1	0.1 to 0.25	< 0.2	< 0.2	< 0.2	C=CC(=O)Nc1cccc(-n2c(=O)c(Oc3ccc(F)cc3F)cc3cnc(Nc4cnn(C(F)F)c4)nc32)c1 [Compound 5]
< 0.1	< 0.2	< 0.2	< 0.1	< 0.2	0.1 to 0.25	< 0.2	< 0.1	< 0.1	< 0.2	< 0.2	< 0.2	C=CC(=O)Nc1cccc(-n2c(=O)c(Oc3ccc(F)cc3F)cc3cnc(Nc4ccc(N5CCN(C)CC5)cc4OC)nc32)c1 [Compound 6]
